The values that follow come from publication PMC6253949, “The Inhibitory Action of Kohamaic Acid A Derivatives on Mammalian DNA Polymerase β” (Molecules, 2008).

The structures appear in SMILES notation.

As usually defined, the IC50 is the point on the concentration scale where inhibition reaches its midpoint. Low readings indicate greater potency in that assay, high ones weaker potency in that assay.

What all share (assay type): biochemical
Assay [1] deals with T1, E. coli DNA polymerase I (Klenow fragment) (Escherichia coli, UniProt P00582).
T1 construct: The Klenow fragment of pol I from E. coli; purchased Worthington Biochemical Corp. (Freehold, NJ, USA)
T1 sequence (P00582 324-928): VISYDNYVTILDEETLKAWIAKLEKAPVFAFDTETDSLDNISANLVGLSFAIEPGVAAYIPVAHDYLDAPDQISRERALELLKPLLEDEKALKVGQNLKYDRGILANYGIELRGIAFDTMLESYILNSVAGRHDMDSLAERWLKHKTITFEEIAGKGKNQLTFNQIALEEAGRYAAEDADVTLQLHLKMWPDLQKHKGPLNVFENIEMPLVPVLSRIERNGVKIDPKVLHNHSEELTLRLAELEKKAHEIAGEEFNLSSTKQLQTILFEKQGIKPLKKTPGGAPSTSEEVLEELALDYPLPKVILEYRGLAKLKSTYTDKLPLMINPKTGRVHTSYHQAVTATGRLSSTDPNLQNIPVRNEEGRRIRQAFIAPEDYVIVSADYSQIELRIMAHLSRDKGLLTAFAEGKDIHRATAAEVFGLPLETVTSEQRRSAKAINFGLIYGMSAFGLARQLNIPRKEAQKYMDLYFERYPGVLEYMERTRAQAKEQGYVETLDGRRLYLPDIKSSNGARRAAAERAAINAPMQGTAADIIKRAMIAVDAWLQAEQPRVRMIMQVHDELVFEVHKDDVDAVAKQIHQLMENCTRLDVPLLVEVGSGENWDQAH
As to the kind of experiment: DNA polymerase assay, Klenow fragment. An excerpt: (§1) Pol α was purified from calf thymus by immuno-affinity column chromatography as described by Tamai et al.. Recombinant rat pol β was purified from E. coli JMpβ5 as described by Date et al.. The human pol γ catalytic gene was cloned into pFastBac. Histidine-tagged enzyme was expressed using the BAC-TO-BAC HT Baculovirus Expression System according to the supplier's manual (LIFE TECHNOLOGIES, MD, USA) and purified using ProBoundresin (Invitrogen Japan, Tokyo, Japan). Human pols δ and ε were purified by the nuclear fractionation of human peripheral blood cancer cells (Molt-4) using the second subunit of pols δ and ε-conjugated affinity column chromatography, respectively. Recombinant human pols η and ι tagged with His6 at their C-terminal were expressed in SF9 insect cells using the baculovirus expression system, and were purified as described previously. A truncated form of pol κ (i.e., hDINB1DC) with 6 x His-tags attached at the C-terminal was overproduced using the BAC-to-BAC Baculovirus Expression System kit (GIBCO BRL, MD, USA) and purified as described previously. […]
(§2) For pols, poly(dA)/oligo(dT)12-18 (A/T = 2/1) and dTTP were used as the DNA template-primer and nucleotide (i.e., dNTP) substrate, respectively. […] Activity without the inhibitor was considered 100%, and the remaining activity at each concentration of the inhibitor was determined relative to this value. […]

Assay [2] addresses T2, Human DNA polymerase γ (Homo sapiens, UniProt P54098).
T2 construct: His tag; made in house; host or cells: baculovirus expression system (insect cells)
T2 sequence (P54098 1-1239): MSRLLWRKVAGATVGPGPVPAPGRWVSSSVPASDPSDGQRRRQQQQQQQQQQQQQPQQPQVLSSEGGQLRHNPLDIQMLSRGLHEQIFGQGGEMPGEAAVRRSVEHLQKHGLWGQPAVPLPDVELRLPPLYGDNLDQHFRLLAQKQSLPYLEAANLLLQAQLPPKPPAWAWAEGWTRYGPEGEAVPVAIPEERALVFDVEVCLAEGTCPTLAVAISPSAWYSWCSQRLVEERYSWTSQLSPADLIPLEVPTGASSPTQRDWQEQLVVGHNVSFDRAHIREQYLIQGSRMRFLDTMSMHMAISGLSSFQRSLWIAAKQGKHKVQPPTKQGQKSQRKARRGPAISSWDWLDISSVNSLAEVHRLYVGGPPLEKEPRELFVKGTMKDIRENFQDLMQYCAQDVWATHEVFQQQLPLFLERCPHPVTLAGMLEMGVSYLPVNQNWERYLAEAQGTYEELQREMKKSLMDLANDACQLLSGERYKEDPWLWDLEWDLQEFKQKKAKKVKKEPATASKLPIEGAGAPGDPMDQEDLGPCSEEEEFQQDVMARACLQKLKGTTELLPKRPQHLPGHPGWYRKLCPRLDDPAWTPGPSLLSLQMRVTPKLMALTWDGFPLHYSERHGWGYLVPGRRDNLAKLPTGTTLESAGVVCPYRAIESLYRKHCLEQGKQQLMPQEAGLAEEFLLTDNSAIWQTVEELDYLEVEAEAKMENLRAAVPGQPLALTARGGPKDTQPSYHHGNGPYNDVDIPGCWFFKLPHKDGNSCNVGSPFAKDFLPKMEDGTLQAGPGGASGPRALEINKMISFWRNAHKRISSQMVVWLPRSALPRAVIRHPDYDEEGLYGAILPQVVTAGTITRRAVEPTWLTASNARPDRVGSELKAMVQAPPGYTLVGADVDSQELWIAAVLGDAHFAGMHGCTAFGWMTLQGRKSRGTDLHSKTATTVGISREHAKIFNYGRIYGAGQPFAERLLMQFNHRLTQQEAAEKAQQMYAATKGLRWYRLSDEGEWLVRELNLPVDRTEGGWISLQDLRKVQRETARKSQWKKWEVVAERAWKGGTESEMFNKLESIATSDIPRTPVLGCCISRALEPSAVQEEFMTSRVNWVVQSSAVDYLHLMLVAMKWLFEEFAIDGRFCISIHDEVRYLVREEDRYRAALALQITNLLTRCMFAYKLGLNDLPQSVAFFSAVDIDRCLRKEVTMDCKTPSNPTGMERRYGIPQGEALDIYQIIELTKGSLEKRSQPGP
As to the kind of experiment: DNA polymerase assay, human pol γ.
Excerpt: as §1, §2

The target of assay [3] is Calf Primase of DNA polymerase α (Bos taurus, UniProt A0A3Q1MF00+A0JNF4). As to the kind of experiment: Primase activity assay of calf pol α. The method, then: The primase activity of calf pol α, the activities of T7 RNA polymerase, T4 polynucleotide kinase and bovine DNase I were measured in standard assays according to the manufacturer's specifications as described by Tamiya-Koizumi et al., Nakayama et al., Soltis et al., and Lu and Sakaguchi, respectively.
Sequence of Calf Primase of DNA polymerase α (A0AAA9THK8 entry or part of it): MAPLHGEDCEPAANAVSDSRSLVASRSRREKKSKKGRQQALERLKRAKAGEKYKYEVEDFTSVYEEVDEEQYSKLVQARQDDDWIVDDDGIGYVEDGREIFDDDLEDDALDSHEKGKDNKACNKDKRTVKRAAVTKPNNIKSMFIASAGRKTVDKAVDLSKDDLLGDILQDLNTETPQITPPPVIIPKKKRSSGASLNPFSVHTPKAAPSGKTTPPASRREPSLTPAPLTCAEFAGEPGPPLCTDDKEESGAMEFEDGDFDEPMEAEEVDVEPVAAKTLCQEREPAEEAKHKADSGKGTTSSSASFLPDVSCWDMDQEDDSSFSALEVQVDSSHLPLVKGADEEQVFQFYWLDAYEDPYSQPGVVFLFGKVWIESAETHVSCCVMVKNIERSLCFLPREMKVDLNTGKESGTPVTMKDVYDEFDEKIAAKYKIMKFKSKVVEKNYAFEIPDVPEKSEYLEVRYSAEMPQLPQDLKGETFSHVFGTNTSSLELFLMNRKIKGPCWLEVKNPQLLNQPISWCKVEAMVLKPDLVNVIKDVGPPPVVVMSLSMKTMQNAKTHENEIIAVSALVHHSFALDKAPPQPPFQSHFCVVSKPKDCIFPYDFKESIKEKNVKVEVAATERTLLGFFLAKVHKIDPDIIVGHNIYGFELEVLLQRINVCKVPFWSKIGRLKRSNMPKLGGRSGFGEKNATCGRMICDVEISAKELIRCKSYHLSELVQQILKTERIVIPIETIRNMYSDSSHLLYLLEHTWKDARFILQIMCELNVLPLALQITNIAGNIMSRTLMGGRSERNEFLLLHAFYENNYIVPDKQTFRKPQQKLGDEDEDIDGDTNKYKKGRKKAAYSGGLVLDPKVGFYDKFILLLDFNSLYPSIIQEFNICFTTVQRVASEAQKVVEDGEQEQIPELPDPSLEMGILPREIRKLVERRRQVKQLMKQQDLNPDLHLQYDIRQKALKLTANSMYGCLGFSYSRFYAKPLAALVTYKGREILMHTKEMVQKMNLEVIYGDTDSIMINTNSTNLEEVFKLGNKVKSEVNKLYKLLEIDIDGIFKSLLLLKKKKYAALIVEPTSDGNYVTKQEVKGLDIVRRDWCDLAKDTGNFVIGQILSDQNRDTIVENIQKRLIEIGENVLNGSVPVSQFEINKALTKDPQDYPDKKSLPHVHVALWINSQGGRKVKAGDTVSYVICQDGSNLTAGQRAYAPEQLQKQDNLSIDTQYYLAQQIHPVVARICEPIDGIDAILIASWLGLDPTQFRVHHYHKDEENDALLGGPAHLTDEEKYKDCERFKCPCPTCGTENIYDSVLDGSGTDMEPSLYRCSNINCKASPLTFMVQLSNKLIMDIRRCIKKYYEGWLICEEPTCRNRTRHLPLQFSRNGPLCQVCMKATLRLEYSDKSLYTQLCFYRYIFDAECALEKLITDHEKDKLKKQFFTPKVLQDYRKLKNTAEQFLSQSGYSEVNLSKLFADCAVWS
Sequence of Calf Primase of DNA polymerase α (A0JNF4 entry or part of it): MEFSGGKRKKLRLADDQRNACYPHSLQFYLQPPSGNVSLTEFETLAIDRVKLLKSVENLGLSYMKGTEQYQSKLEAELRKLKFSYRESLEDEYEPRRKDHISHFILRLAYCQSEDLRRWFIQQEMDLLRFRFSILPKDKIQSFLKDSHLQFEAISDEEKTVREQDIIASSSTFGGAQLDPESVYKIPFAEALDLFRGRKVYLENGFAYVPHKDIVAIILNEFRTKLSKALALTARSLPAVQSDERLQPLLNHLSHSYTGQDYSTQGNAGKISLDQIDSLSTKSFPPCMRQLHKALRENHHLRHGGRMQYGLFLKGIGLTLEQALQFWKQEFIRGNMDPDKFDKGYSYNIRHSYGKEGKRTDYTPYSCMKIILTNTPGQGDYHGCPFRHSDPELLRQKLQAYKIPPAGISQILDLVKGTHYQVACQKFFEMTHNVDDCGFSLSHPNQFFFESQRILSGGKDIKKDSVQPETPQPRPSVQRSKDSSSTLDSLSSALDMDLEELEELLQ
Sequence of Calf Primase of DNA polymerase α (Q58D13 whole entry, further chain): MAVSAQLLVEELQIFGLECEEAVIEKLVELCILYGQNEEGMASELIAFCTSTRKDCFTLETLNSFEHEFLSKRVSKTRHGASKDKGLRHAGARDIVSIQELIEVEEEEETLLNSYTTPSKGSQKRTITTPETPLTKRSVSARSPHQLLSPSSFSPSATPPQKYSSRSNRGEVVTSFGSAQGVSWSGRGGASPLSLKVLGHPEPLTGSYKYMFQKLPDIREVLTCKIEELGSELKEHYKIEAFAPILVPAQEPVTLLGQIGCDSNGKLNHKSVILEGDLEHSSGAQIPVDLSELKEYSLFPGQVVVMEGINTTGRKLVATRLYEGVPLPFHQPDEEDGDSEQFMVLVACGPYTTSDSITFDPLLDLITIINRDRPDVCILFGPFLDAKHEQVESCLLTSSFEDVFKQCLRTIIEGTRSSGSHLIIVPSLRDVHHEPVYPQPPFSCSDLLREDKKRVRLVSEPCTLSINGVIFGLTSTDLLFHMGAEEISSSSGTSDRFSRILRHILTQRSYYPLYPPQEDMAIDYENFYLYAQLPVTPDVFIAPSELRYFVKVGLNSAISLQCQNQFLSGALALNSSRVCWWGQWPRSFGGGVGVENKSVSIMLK
Sequence of Calf Primase of DNA polymerase α (A0A3Q1MF00 entry or part of it): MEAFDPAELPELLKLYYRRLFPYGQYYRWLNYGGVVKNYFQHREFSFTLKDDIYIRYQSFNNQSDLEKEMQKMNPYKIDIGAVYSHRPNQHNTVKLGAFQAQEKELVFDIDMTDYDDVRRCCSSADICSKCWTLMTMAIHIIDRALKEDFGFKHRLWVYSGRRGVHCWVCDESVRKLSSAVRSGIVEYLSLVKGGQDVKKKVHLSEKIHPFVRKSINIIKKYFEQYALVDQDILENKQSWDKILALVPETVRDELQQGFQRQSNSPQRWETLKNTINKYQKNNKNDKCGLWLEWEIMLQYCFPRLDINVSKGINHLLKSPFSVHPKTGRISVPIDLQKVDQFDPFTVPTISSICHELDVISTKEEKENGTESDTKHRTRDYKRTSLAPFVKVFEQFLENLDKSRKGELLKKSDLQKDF

Assay [4] has as its target Cherry salmon DNA polymerase δ (Oncorhynchus masou, UniProt Z9UCE0HTX2). As to the kind of experiment: DNA polymerase assay, fish pol δ.
For assay [5], the target named is T3, Human DNA polymerase ε (Homo sapiens, UniProt Q07864).
T3 construct: Human pols δ and ε were purified by the nuclear fractionation of human peripheral blood cancer cells (Molt-4); endogenous in cells; host or cells: Molt-4
As to the kind of experiment: DNA polymerase assay, human pol ε.
Excerpt: as §1, §2

Sequence of Cherry salmon DNA polymerase δ (Z9UCE0HTX2 1-856): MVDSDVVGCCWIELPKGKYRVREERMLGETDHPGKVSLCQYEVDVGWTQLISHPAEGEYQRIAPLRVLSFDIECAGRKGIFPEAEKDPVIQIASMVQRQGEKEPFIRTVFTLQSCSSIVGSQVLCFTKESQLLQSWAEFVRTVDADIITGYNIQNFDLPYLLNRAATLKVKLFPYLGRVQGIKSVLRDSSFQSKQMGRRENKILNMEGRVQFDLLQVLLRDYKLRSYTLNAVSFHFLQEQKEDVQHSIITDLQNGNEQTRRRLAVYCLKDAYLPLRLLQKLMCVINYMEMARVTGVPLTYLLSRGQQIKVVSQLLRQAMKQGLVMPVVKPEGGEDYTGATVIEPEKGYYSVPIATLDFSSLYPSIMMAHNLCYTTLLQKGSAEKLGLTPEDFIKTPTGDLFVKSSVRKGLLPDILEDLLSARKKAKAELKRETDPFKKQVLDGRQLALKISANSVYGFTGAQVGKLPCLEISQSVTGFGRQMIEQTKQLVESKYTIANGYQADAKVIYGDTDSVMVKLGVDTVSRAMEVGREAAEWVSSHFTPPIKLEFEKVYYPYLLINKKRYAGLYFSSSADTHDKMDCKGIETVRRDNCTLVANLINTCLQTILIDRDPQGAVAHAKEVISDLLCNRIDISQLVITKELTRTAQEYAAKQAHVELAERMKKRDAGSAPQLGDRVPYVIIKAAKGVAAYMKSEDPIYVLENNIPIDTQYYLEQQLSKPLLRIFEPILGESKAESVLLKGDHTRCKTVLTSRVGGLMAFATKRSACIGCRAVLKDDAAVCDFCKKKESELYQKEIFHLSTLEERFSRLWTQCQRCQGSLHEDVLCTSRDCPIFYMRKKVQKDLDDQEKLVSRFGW

For `CC1=CC[C@H]2C(C)(C)CCC[C@]2(C)[C@H]1CCCCCCCCCCCCCCCCC(=O)O` (relative stereo) [compound 11, (1S*,4aS*,8aS*)-17-(1,4,4a,5,6,7,8,8a-octahydro-2,5,5,8a-tetramethylnaphthalen-1-yl)heptadecanoic acid], the IC50 in assay [1] was over 200 µM; in assay [2], 8.76 ± 0.44 µM; in assay [3] it was over 200 µM; in assay [4], 4.3 ± 0.22 µM; in assay [5] it was 3.22 ± 0.16 µM.
